{
  "source": "patent US20170007615A1",
  "about": "“Antibacterial Compounds” (priority 2014, published 2017)",
  "key": {"E. coli (ATCC 25922) [1]": {"system": "E. coli (ATCC 25922)", "details": "for MIC of Compound (μg/ml) in the presence of PMBN (128 μg/ml): Table 1, (b) No effect"}, "[2]": {"system": "A. baumannii (ATCC 19606)", "details": "for MIC of Compound (μg/ml) in the presence of PMBN (128 μg/ml): Table 4"}, "E. coli (NDM-1; CTX-M15)": {"system": "E. coli (NDM-1; CTX-M15)", "test": "Septicaemia infection model, survival", "details": "two doses"}, "[3]": {"system": "F. philomiragia (ATCC 25015)", "details": "Table 9; (a) No measurable antibacterial activity"}, "[4]": {"system": "P. aeruginosa (ATCC 27853)", "details": "ATCC 27853"}, "[5]": {"system": "A. baumannii (ATCC 19606)", "test": "microbe, parasite or virus in culture", "details": "Acinetobacter baumannii, ATCC19606, read-out: MIC Compound alone"}, "E. coli (ATCC 25922) [6]": {"system": "E. coli (ATCC 25922)", "test": "microbe, parasite or virus in culture", "details": "Escherichia coli, ATCC25922, read-out: MIC Compound alone, Table 1"}, "E. faecalis (ATCC 29212)": {"system": "E. faecalis (ATCC 29212)", "test": "Antibacterial activity (MIC), Gram-positive type strain", "type": "cell-based, Enteroccocus faecalis", "details": "Enterococcus faecalis, ATCC29212; Table 13"}, "[7]": {"system": "N. gonorrheae (ATCC 49226)", "test": "Antibacterial activity (MIC), Gram-negative type strain", "type": "cell-based, Neisseria gonorrhoeae", "details": "Neisseria gonorrhoeae, ATCC49226; Table 13"}, "S. aureus (ATCC 29213)": {"system": "S. aureus (ATCC 29213)", "test": "Antibacterial activity (MIC), Gram-positive type strain", "type": "cell-based, Staphylococcus aureus", "details": "Staphylococcus aureus, ATCC29213; Table 13"}, "[8]": {"system": "H. influenzae (ATCC 49247)", "test": "Antibacterial activity (MIC), Gram-negative type strain", "type": "cell-based, Haemophilus influenzae", "details": "Haemophilus influenzae, ATCC49247; Table 13"}, "[9]": {"system": "K. pneumonia colistin-resistant strains", "test": "microbe, parasite or virus in culture", "type": "cell-based", "details": "K. pneumonia strains raised by selection with 2 or 4 μg/mL of colistin on MH agar"}, "B. cepacia (ATCC 25416)": {"system": "B. cepacia (ATCC 25416)", "test": "Antibacterial activity (MIC), alone and with colistin", "type": "cell-based, Burkholderia cepacia", "details": "Table 8; (a) No measurable antibacterial activity"}, "[10]": {"system": "E. coli colistin-resistant strains", "test": "microbe, parasite or virus in culture", "type": "cell-based", "details": "E. coli strains raised by selection with 2 or 4 μg/mL of colistin on MH agar"}, "[11]": {"system": "A. baumannii colistin-resistant strains", "test": "microbe, parasite or virus in culture", "type": "cell-based", "details": "A. baumannii strains raised by selection with 2 or 4 μg/mL of colistin on MH agar"}},
  "note": "Marks after values point to notes of the source that are not given here. Positions of bridges follow the written chain, without caps; N, C: chain ends. Non-standard residues stand in square brackets, D forms with d. Residues, ends and D or L forms follow the SMILES beside them. Dab = NCC[C@H](N)C(=O)O",
  "data": [
    {"compound": "CC(C)C[C@@H]1NC(=O)[C@@H](Cc2ccccc2)NC(=O)[C@H](CCN)NC(=O)[C@@H](NC(=O)[C@H](CCN)NC(=O)[C@@H](N)[C@@H](C)O)CCNC(=O)[C@H]([C@@H](C)O)NC(=O)[C@H](CCN)NC(=O)[C@H](CCN)NC1=O", "note": "[PMBN, Polymyxin B nonapeptide, reference compound] (H-T[Dab][Dab][Dab][dF]L[Dab][Dab]T; lactam 3-C (inferred); N-terminus assumed)", "values": [
      {"measurement": "MIC PMBN alone", "setting": "E. coli (ATCC 25922) [1]; ATCC 25922", "value": ">128^(a) μg/ml"},
      {"measurement": "MIC PMBN alone", "setting": "E. cloaceae (ATCC 13047); ATCC 13047", "value": ">128^(a) μg/ml"},
      {"measurement": "MIC PMBN alone", "setting": "[2]; ATCC 19606", "value": ">128^(a) μg/ml"},
      {"measurement": "survival at the end of 5 days", "setting": "E. coli (NDM-1; CTX-M15); PMBN 50 mg/kg SC alone", "value": "No mice survived"},
      {"measurement": "MIC PMBN alone", "setting": "[3]", "value": ">32^(a) μg/ml"},
      {"measurement": "MIC PMBN alone", "setting": "[4]", "value": ">128^(a) μg/ml"}
    ]},
    {"compound": "CCNC(=O)Nc1nc2cc(-c3cnc(C(C)(O)CO)nc3)cc(-c3ncc(C)cn3)c2s1", "note": "(centres unmarked) [Compound A-8, 1-[5-[2-(1,2-Dihydroxy-1-methyl-ethyl)pyrimidin-5-yl]-7-(5-methylpyrimidin-2-yl)-1,3-benzothiazol-2-yl]-3-ethyl-urea]", "values": [
      {"measurement": "MIC", "setting": "[5]", "value": 2, "unit": "µg/mL"},
      {"measurement": "MIC of Compound (μg/ml) in the presence of PMBN (128 μg/ml)", "setting": "E. coli (ATCC 25922) [1]", "value": 0.06, "unit": "µg/mL"},
      {"measurement": "MIC of Compound (μg/ml) in the presence of PMBN (128 μg/ml)", "setting": "[2]", "value": 0.25, "unit": "µg/mL"},
      {"measurement": "MIC", "setting": "E. coli (ATCC 25922) [6]", "value": 4, "unit": "µg/mL"}
    ]},
    {"compound": "CCNC(=O)Nc1nc2cc(-c3ccn(C)c(=O)c3)cc(-c3ccccn3)c2s1", "note": "[Example 51 (WO2007/148093)]", "values": [
      {"measurement": "MIC", "setting": "[5]", "value": 4, "unit": "µg/mL"},
      {"measurement": "MIC of Compound (μg/ml) in the presence of PMBN (128 μg/ml)", "setting": "E. coli (ATCC 25922) [1]", "value": 0.06, "unit": "µg/mL"},
      {"measurement": "MIC of Compound (μg/ml) in the presence of PMBN (128 μg/ml)", "setting": "[2]", "value": 0.5, "unit": "µg/mL"},
      {"measurement": "MIC", "setting": "E. coli (ATCC 25922) [6]", "value": 16, "unit": "µg/mL"}
    ]},
    {"compound": "CCNC(=O)Nc1nc2cc(-c3cnc(NS(=O)(=O)C4CCCC4)nc3)cc(-c3ccc(C)cn3)c2s1", "note": "[Compound A-21, 1-[5-[2-(cyclopentylsulfonylamino)pyrimidin-5-yl]-7-(5-methyl-2-pyridyl)-1,3-benzothiazol-2-yl]-3-ethyl-urea]", "values": [
      {"measurement": "MIC", "setting": "[5]", "value": 1, "unit": "µg/mL"},
      {"measurement": "MIC", "setting": "E. faecalis (ATCC 29212)", "value": "≤ 0.008", "unit": "µg/mL"},
      {"measurement": "MIC of Compound (μg/ml) in the presence of PMBN (128 μg/ml)", "setting": "[2]", "value": 0.03, "unit": "µg/mL"},
      {"measurement": "MIC", "setting": "[7]", "value": "≤ 0.008", "unit": "µg/mL"},
      {"measurement": "MIC", "setting": "S. aureus (ATCC 29213)", "value": "≤ 0.002", "unit": "µg/mL"},
      {"measurement": "MIC", "setting": "[8]", "value": 0.03, "unit": "µg/mL"}
    ]},
    {"compound": "CCNC(=O)Nc1nc2cc(-c3cnc([C@@H](C)OP(=O)(O)O)nc3)cc(-c3ccccn3)c2s1", "note": "[Example 152 of WO2013/138860, [(1R)-1-[5-[2-(ethylcarbamoylamino)-7-(2-pyridyl)-1,3-benzothiazol-5-yl]pyrimidin-2-yl]ethyl] dihydrogen phosphate]", "values": [
      {"measurement": "survival at the end of 5 days", "setting": "E. coli (NDM-1; CTX-M15); 100 mg/kg IV alone", "value": "No mice survived"}
    ]},
    {"compound": "CCNC(=O)Nc1nc2cc(-c3cnc(NS(=O)(=O)C(C)(C)CO)nc3)cc(-c3ccc(C)cn3)c2s1", "note": "[Compound A-14, 1-Ethyl-3-[5-[2-[(2-hydroxy-1,1-dimethyl-ethyl)sulfonylamino]pyrimidin-5-yl]-7-(5-methyl-2-pyridyl)-1,3-benzothiazol-2-yl]urea]", "values": [
      {"measurement": "MIC of Compound (μg/ml) in the presence of PMBN (128 μg/ml)", "setting": "E. coli (ATCC 25922) [1]", "value": 0.03, "unit": "µg/mL"},
      {"measurement": "MIC", "setting": "E. faecalis (ATCC 29212)", "value": "≤ 0.008", "unit": "µg/mL"},
      {"measurement": "MIC", "setting": "[7]", "value": 0.015, "unit": "µg/mL"},
      {"measurement": "MIC", "setting": "E. coli (ATCC 25922) [6]", "value": 4, "unit": "µg/mL"},
      {"measurement": "MIC", "setting": "S. aureus (ATCC 29213)", "value": 0.03, "unit": "µg/mL"},
      {"measurement": "MIC", "setting": "[8]", "value": 0.015, "unit": "µg/mL"}
    ]},
    {"compound": "colistin [reference compound]", "values": [
      {"measurement": "MIC (colistin)", "setting": "[9]", "value": "^(a)Raised by selection with 2 or 4 μg/mL of colistin on MH agar: MIC (colistin) = 16-32 μg/mL"},
      {"measurement": "MIC colistin alone", "setting": "E. coli (ATCC 25922) [1]; Table 2", "value": 2, "unit": "µg/mL"},
      {"measurement": "MIC Compound alone", "setting": "E. coli (ATCC 25922) [1]; Table 12", "value": 4, "unit": "µg/mL"},
      {"measurement": "MIC of Compound (μg/ml) in the presence of PMBN (32 μg/ml)", "setting": "E. coli (ATCC 25922) [1]; Table 12, (b) No significant effect", "value": "4^(b) μg/ml"},
      {"measurement": "MIC colistin alone", "setting": "E. cloaceae (ATCC 13047); Table 7, (a) No measurable antibacterial activity", "value": ">64^(a) μg/ml"},
      {"measurement": "MIC colistin alone", "setting": "B. cepacia (ATCC 25416)", "value": ">64^(a) μg/ml"},
      {"measurement": "MIC (colistin)", "setting": "[10]", "value": "^(a)Raised by selection with 2 or 4 μg/mL of colistin on MH agar: MIC (colistin) = 16-32 μg/mL"},
      {"measurement": "MIC (colistin)", "setting": "[11]", "value": "^(a)Raised by selection with 2 or 4 μg/mL of colistin on MH agar: MIC (colistin) = 16-32 μg/mL"}
    ]},
    {"compound": "CCNC(=O)Nc1nc2cc(-c3cnc(NS(=O)(=O)N(C)CCO)nc3)cc(-c3ccc(C)cn3)c2s1", "note": "[Compound A-15, 1-Ethyl-3-[5-[2-[[2-hydroxyethyl(methyl)sulfamoyl]amino]pyrimidin-5-yl]-7-(5-methyl-2-pyridyl)-1,3-benzothiazol-2-yl]urea]", "values": [
      {"measurement": "MIC of Compound (μg/ml) in the presence of PMBN (128 μg/ml)", "setting": "E. coli (ATCC 25922) [1]", "value": 0.03, "unit": "µg/mL"},
      {"measurement": "MIC", "setting": "E. faecalis (ATCC 29212)", "value": 0.015, "unit": "µg/mL"},
      {"measurement": "MIC", "setting": "[7]", "value": "≤ 0.008", "unit": "µg/mL"},
      {"measurement": "MIC", "setting": "E. coli (ATCC 25922) [6]", "value": 4, "unit": "µg/mL"},
      {"measurement": "MIC", "setting": "S. aureus (ATCC 29213)", "value": 0.12, "unit": "µg/mL"},
      {"measurement": "MIC", "setting": "[8]", "value": 0.03, "unit": "µg/mL"}
    ]}
  ]
}
